molecular target: T1, viral kinase pUL-97 (Human cytomegalovirus, UniProt P16788); assay: UL97 kinase assay on Immobilon plate; format: biochemical; conditions: inhibition of UL 97 kinase activity; class by IC50 / % inhibition at 10 μM or 100 μM; read-out: Activity Class [A, B, C]
T1 construct: The pUL-97 gene was cloned into a baculovirus vector; GST (glutathione S-transferase) (N); made in house; host or cells: Sf9 insect cells, baculovirus
Method in brief: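 Compound was titrated into a radiometric reaction of Sf9-expressed GST-UL97 kinase, incubated 1 h at 30 °C in Tris-HCl pH 7.5/MnCl2/DTT buffer before EDTA stop. MBP substrate and ATP (3 μM in the added assay buffer) were supplied with γ-[33P]ATP. Labelled product bound to Immobilon filter was washed and counted by scintillation.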

T1 sequence (P16788 whole entry): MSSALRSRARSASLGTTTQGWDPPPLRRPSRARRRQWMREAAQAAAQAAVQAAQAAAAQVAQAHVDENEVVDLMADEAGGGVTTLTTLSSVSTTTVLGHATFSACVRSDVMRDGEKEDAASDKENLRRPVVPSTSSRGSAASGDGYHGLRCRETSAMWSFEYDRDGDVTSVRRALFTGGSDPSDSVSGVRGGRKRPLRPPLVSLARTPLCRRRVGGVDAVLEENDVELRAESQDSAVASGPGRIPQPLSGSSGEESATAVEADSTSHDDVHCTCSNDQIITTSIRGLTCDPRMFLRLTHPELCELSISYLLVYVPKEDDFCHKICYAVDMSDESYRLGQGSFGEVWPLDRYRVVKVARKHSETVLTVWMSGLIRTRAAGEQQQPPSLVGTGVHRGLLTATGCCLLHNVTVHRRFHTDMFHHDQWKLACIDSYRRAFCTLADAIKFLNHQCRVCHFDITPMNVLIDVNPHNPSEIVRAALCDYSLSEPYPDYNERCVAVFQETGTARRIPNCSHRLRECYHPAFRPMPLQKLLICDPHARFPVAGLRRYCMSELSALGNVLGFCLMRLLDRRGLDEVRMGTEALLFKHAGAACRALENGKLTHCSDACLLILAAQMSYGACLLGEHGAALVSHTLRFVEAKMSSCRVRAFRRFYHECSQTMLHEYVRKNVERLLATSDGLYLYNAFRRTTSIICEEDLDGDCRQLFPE

| IC50 | SMILES |
| --- | --- |
| 1 to 10 µM | Fc1ccccc1N1CCN(c2cncc(-c3ccc(C(F)(F)F)cc3)n2)CC1 [compound 197, 4-(2-Fluoro-phenyl)-6′-(4-trifluoromethyl-phenyl)-3,4,5,6-tetrahydro-2H-[1,2′]bipyrazinyl] |
| 10 to 100 µM | Cc1ccc(N2CCN(c3cncc(-c4csc5ccccc45)n3)CC2)cc1 [compound 231, 6′-Benzo[b]thiophen-3-yl-4-p-tolyl-3,4,5,6-tetrahydro-2H-[1,2′]bipyrazinyl] |
| 1 to 10 µM | COc1cccc(N2CCN(c3cncc(-c4ccc(CO)cc4)n3)CC2)c1 [compound 323, {4-[4-(3-Methoxy-phenyl)-3,4,5,6-tetrahydro-2H-[1,2′]bipyrazinyl-6′-yl]-phenyl}-methanol] |
| 1 to 10 µM | Fc1ccc(N2CCN(c3cncc(-c4csc5ccccc45)n3)CC2)cc1 [compound 235, 6′-Benzo[b]thiophen-3-yl-4-(4-fluoro-phenyl)-3,4,5,6-tetrahydro-2H-[1,2′]bipyrazinyl] |
| 1 to 10 µM | COc1ccc(-c2cncc(N3CCN(c4ccc(C(C)=O)cc4)CC3)n2)cc1F [compound 206, 1-{4-[6′-(3-Fluoro-4-methoxy-phenyl)-2,3,5,6-tetrahydro-[1,2′]bipyrazinyl-4-yl]-phenyl}-ethanone] |
| 1 to 10 µM | OCc1ccc(-c2cncc(N3CCN(c4ccncc4)CC3)n2)cc1 [compound 258, [4-(4-Pyridin-4-yl-3,4,5,6-tetrahydro-2H-[1,2′]bipyrazinyl-6′-yl)-phenyl]-methanol] |
| 10 to 100 µM | Cc1cc(C)cc(-c2cncc(N3CCN(c4ccc(Cl)c(Cl)c4)CC3)n2)c1 [compound 358, 4-(3,4-Dichloro-phenyl)-6′-(3,5-dimethyl-phenyl)-3,4,5,6-tetrahydro-2H-[1,2′]bipyrazinyl] |
| 1 to 10 µM | c1ccc2c(-c3cncc(N4CCN(c5ccncc5)CC4)n3)csc2c1 [compound 222, 6′-Benzo[b]thiophen-3-yl-4-pyridin-4-yl-3,4,5,6-tetrahydro-2H-[1,2′]bipyrazinyl] |
| 1 to 10 µM | Fc1ccc(-c2cncc(N3CCN(c4ccccn4)CC3)n2)cc1 [compound 305, 6′-(4-Fluoro-phenyl)-4-pyridin-2-yl-3,4,5,6-tetrahydro-2H-[1,2′]bipyrazinyl] |
| 10 to 100 µM | c1ccc(C2CCN(c3cncc(-c4cccc5ccccc45)n3)CC2)cc1 [compound 318, 2-Naphthalen-1-yl-6-(4-phenyl-piperidin-1-yl)-pyrazine] |
| 10 to 100 µM | Cc1cccc(N2CCN(c3cncc(-c4ccc5ccccc5c4)n3)CC2C)c1 (stereo not shown) [compound 347, 3-Methyl-6′-naphthalen-2-yl-4-m-tolyl-3,4,5,6-tetrahydro-2H-[1,2′]bipyrazinyl] |
| 10 to 100 µM | COc1ccccc1N1CCN(c2cncc(-c3csc4ccccc34)n2)CC1 [compound 243, 6′-Benzo[b]thiophen-3-yl-4-(2-methoxy-phenyl)-3,4,5,6-tetrahydro-2H-[1,2′]bipyrazinyl] |

same assay, conditions: inhibition of UL 97 kinase activity; class by IC50 / % inhibition at 10 or 100 μM; read-out: Activity Class [A, B, C]

| IC50 | SMILES |
| --- | --- |
| 1 to 10 µM | CCOc1ccc(-c2cncc(N3CCN(c4cccc(Cl)c4)CC3)n2)cc1 [compound 129, 4-(3-Chloro-phenyl)-6′-(4-ethoxy-phenyl)-3,4,5,6-tetrahydro-2H-[1,2′]bipyrazinyl] |
| 1 to 10 µM | Fc1ccc(-c2cncc(N3CCN(c4ccncc4)CC3)n2)cc1 [compound 76, 6′-(4-Fluoro-phenyl)-4-pyridin-4-yl-3,4,5,6-tetrahydro-2H-[1,2′]bipyrazinyl] |
| 10 to 100 µM | CC(=O)c1ccc(N2CCN(c3cncc(-c4ccccc4C(C)=O)n3)CC2)cc1 [compound 146, 1-{2-[4-(4-Acetyl-phenyl)-3,4,5,6-tetrahydro-2H-[1,2′]bipyrazinyl-6′-yl]-phenyl}-ethanone] |
| 10 to 100 µM | COc1ccc(-c2cncc(N3CCN(c4cccc(C(F)(F)F)c4)CC3)n2)cc1OC [compound 161, 6′-(3,4-Dimethoxy-phenyl)-4-(3-trifluoromethyl-phenyl)-3,4,5,6-tetrahydro-2H-[1,2′]bipyrazinyl] |
| 10 to 100 µM | Fc1cc(-c2cncc(N3CCN(c4ccccc4)CC3)n2)ccc1-c1ccccc1 [compound 96, 6′-(2-Fluoro-biphenyl-4-yl)-4-phenyl-3,4,5,6-tetrahydro-2H-[1,2′]bipyrazinyl] |
| < 1 µM | COc1ccccc1N1CCN(c2cncc(-c3ccc(C(N)=O)cc3)n2)CC1 [compound 104, 4-[4-(2-Methoxy-phenyl)-3,4,5,6-tetrahydro-2H-[1,2′]bipyrazinyl-6′-yl]-benzamide] |
| 1 to 10 µM | COc1cccc(-c2cncc(N3CCN(c4ccncc4)CC3)n2)c1 [compound 78, 6′-(3-Methoxy-phenyl)-4-pyridin-4-yl-3,4,5,6-tetrahydro-2H-[1,2′]bipyrazinyl] |
| 10 to 100 µM | CSc1ccccc1-c1cncc(N2CCN(c3ccncc3)CC2)n1 [compound 166, 6′-(2-Methylsulfanyl-phenyl)-4-pyridin-4-yl-3,4,5,6-tetrahydro-2H-[1,2′]bipyrazinyl] |
| 1 to 10 µM | COc1cccc(-c2cncc(N3CCN(c4ccccc4F)CC3)n2)c1 [compound 113, 4-(2-Fluoro-phenyl)-6′-(3-methoxy-phenyl)-3,4,5,6-tetrahydro-2H-[1,2′]bipyrazinyl] |
| 1 to 10 µM | COc1ccccc1N1CCN(c2cncc(-c3ccoc3)n2)CC1 [compound 90, 6′-Furan-3-yl-4-(2-methoxy-phenyl)-3,4,5,6-tetrahydro-2H-[1,2′]bipyrazinyl] |
| 10 to 100 µM | Fc1ccc(-c2cncc(N3CCN(c4cccc(C(F)(F)F)c4)CC3)n2)cc1Cl [compound 157, 6′-(3-Chloro-4-fluoro-phenyl)-4-(3-trifluoromethyl-phenyl)-3,4,5,6-tetrahydro-2H-[1,2′]bipyrazinyl] |
| 1 to 10 µM | Cc1ccc(N2CCN(c3cncc(-c4ccc(C(F)(F)F)cc4)n3)CC2)cc1 [compound 178, 4-p-Tolyl-6′-(4-trifluoromethyl-phenyl)-3,4,5,6-tetrahydro-2H-[1,2′]bipyrazinyl] |
| 1 to 10 µM | CC(=O)c1cccc(-c2cncc(N3CCN(c4ccccc4)CC3)n2)c1 [compound 112, 1-[3-(4-Phenyl-3,4,5,6-tetrahydro-2H-[1,2′]bipyrazinyl-6′-yl)-phenyl]-ethanone] |
| 1 to 10 µM | COc1ccccc1N1CCN(c2cncc(-c3ccc(F)cc3)n2)CC1 [compound 106, 6′-(4-Fluoro-phenyl)-4-(2-methoxy-phenyl)-3,4,5,6-tetrahydro-2H-[1,2′]bipyrazinyl] |
| 10 to 100 µM | COc1ccc(N2CCN(c3cncc(-c4ccc(CN)cc4)n3)CC2)cc1OC [compound 60, 4-[4-(3,4-Dimethoxy-phenyl)-3,4,5,6-tetrahydro-2H-[1,2′]bipyrazinyl-6′-yl]-benzylamine] |
| < 1 µM | NC(=O)c1ccc(-c2cncc(NCCc3c[nH]c4ccccc34)n2)cc1 [compound 35, 4-{6-[2-(1H-Indol-3-yl)-ethylamino]-pyrazin-2-yl}-benzamide] |
| 10 to 100 µM | CC(=O)c1ccc(N2CCN(c3cncc(-c4ccc(F)c(Cl)c4)n3)CC2)cc1 [compound 151] |
| 1 to 10 µM | Fc1ccc(-c2cncc(N3CCN(c4ccccc4F)CC3)n2)cc1 [compound 114, 4-(2-Fluoro-phenyl)-6′-(4-fluoro-phenyl)-3,4,5,6-tetrahydro-2H-[1,2′]bipyrazinyl] |

| SMILES | IC50 |
| --- | --- |
| c1ccc2cc(-c3cncc(N4CCN(c5ccncc5)CC4)n3)ccc2c1 [Comp. 72, 6′-Naphthalen-2-yl-4-pyridin-4-yl-3,4,5,6-tetrahydro-2H-[1,2-′]bipyrazinyl] | < 1 µM |
